Experimental data: patent US6469028B1, “Synthesis and use of retinoid compounds having negative hormone and/or anatgonist activities” (Allergan, Inc., priority 1995, dated 2002)

Columns and labels:
hairless mice [1] = assay: Example 1: skin irritation by topical agonist, topical antagonist; format: in vivo; settings: group B: AGN 191183 0.025 mg/kg/d topical alone, 5 days, scored to day 8, mean±SD
Method: More particularly skin irritation was measured on a semiquantitative scale by the daily subjective evaluation of skin flaking and abrasions. A single number, the topical irritation score, summarizes the skin irritation induced in an animal during the course of an experiment. The topical irritation score is calculated as follows. The topical irritation score is the algebraic sum of a composite flaking score and a composite abrasion score. The composite scores range from 0-9 and 0-8 for flaking and abrasions, respectively, and take into account the maximum severity, the time of onset, and the average severity of the flaking and abrasions observed.
The severity of flaking is scored on a 5-point scale and the severity of abrasions is scored on a 4-point scale, with higher scores reflecting greater severity. The maximum severity component of the composite scores would be the highest daily severity score assigned to a given animal during the course of observation.
For the time of onset component of the composite score, a score ranging from 0 to 4 is assigned as follows:
The average severity component of the composite score is the sum of the daily flaking or abrasion scores divided by the number of observation days.
To calculate the composite flaking and abrasion scores, the average severity and time of onset scores are summed and divided by 2. The result is added to the maximal severity score. The composite flaking and abrasion scores are then summed to give the overall topical irritation score. Each animal receives a topical irritation score, and the values are expressed as the mean±SD of the individual scores of a group of animals. Values are rounded to the nearest integer.
Female hairless mice [Crl:SKH1-hrBR] […] Treatments are applied to the dorsal skin in a total volume of 4 ml/kg (˜0.1 ml). Mice were observed daily and scored for flaking and abrasions up to and including 3 days after the last treatment, i.e., day 8.

hairless mice [2] = assay: Example 2: skin irritation and weight loss by oral agonist, topical antagonist; format: in vivo; settings: group B: oral AGN 191183 0.26 mg/kg/d alone, 4 days
Method: Mice were simultaneously treated topically on the dorsal skin with vehicle (97.6% acetone/2.4% dimethylsulfoxide) or solutions of AGN 193109 in vehicle (6 ml/kg). Specific doses for the different treatment groups are give in Table 8. Treatments were administered daily for 4 consecutive days. Mice were weighed and graded for topical irritation daily as described in Example 1 up to and including 1 day after the last treatment. Percent body weight change is calculated by subtracting […], dividing by initial body weight, and multiplying by 100%. Topical irritation scores are calculated as described in Example 1.

guinea pigs = assay: Example 5: premature epiphyseal plate closure (bone toxicity); format: in vivo; settings: AGN 191183 0.06 mg/ml, intraperitoneal osmotic pump, 14 days, n=4
Method: The osmotic pumps are designed by the manufacturer to deliver ˜5 μl of solution per hour continuously for 14 days.
The animals were euthanized by carbon dioxide asphyxiation 14 days after implantation. The left tibia was removed and placed in 10% buffered formalin. The tibias were decalcified by exposure to a formic acid/formalin solution for 3-4 days, and paraffin sections were prepared. Sections were stained with hematoxylin and eosin by standard methods. The proximal tibial epiphyseal plate was examined and scored as closed or not closed. Epiphyseal plate closure is defined for this purpose as any interruption of the continuity of the epiphyseal growth plate cartilage, i.e., replacement by bone and/or fibroblastic tissue.

ECE16-1 cells = assay: Example 17: EGF dependent proliferation of ECE16-1 cells; format: cell-based; settings: 10 nM AGN 191183 and 0 nM AGN 193109, three days
Method: ECE16-1 cells were seeded at a density of 1×10^4 cells per cm^2 in complete medium containing DMEM:F12 (3:1), nonessential amino acids, 5% FBS, 5 μg/ml transferring, 2 nM of 3,3′,5 triiodothyronine (thyroid hormone or “T3”), 0.1 nNM cholera toxin, 2 mM L-glutamine, 1.8×10^−4 M adenine and 10 ng/ml EGF. Cells were allowed to attach to plates overnight and then shifted to defined medium containing DMEM:F12 (3:1), 2 mM L-glutamine, nonessential amino acids, 0.1% bovine serum albumin, 1.8×10^−4 M adenine, 5 μg/ml transferring, 2 nM T3, 50 μg/ml ascorbic acid, 100 ug/ml streptomycin, 100 units/ml penicillin and 50 μg/ml gentamicin. Defined medium (DM) was supplemented with 10 ng/ml EGF. […] After three days of treatment, cells were harvested as described by Hembree et al. in Cancer Res. 54:3160 (1994) and cell numbers determined using a COULTER counter.

CaSki cells = assay: Example 18: proliferation of CaSki cells; format: cell-based
Method: EGF was added to the retinoid treated cultures to give a final concentration of 20 ng/ml. […] The media was replaced with fresh media and each of the two retinoid compounds, as appropriate, every day. Cell numbers were determined using a COULTER counter as described above.

[3] = test system: MRP-8 expression in primary foreskin keratinocytes; assay: Example 20: MRP-8 expression in keratinocytes (RT-PCR); format: cell-based, human; settings: AGN 191183 10^−7 M or AGN 193109 10^−6 M, 3 days
Description: Primary foreskin keratinocytes were isolated according to the procedure described by Nagpal et al. in J. Biol. Chem. 270:923 (1995) and cultured in keratinocyte growth medium (KGM) that was purchased from Clonetics. […] The mRNA was reverse transcribed into cDNA which then served as the template in a PCR amplification protocol using primers specific for either the glyceraldehyde phosphate dehydrogenase (GAPDH) housekeeping gene or MRP-8. The GAPDH primers had the sequences [NT] ID NO:6) and [NT] ID NO:7). The MRP-8 primers had the sequences [NT] ID NO:8) and [NT] ID NO:9). An aliquot from the MRP-8 amplification reaction (10 μl) was removed after every cycle of PCR amplification starting from 12 cycles and ending at 21 cycles. Similarly, an aliquot of the GAPDH amplification reaction was removed after every PCR cycle starting at 15 cycles and ending at 24 cycles. […] The staining intensity of the amplification products served as a quantitative measure of the amount of starting MRNA specific for the given primer set.

[4] = test system: stromelysin-1 expression in primary foreskin keratinocytes; assay: Example 21: stromelysin-1 expression in keratinocytes (RT-PCR); format: cell-based, human; settings: AGN 191183 10^−7 M or AGN 193109 10^−6 M, 24 hours
Method: Total RNA prepared from mock-treated and retinoid-treated keratinocytes was reverse transcribed and the resulting cDNA was PCR amplified using β-actin or stromelysin-1 oligo primers exactly as described by Nagpal et al. in J. Biol. Chem. 270:923 (1995)), the disclosure of which has been incorporated by reference. A sample (10 μl) from the PCR amplification reaction was removed after every three cycles starting from 18 cycles of PCR amplification. The sample was electrophoresed on a 2% agarose gel and detected after ethidium bromide staining.

SMILES: C/C(=C\c1ccc(C(=O)O)cc1)c1ccc2c(c1)C(C)(C)CCC2(C)C [AGN 191183, 4-[(E)-2-(5,6,7,8-tetrahydro-5,5,8,8-tetramethylnaphthalen-2-yl)propen-1-yl]benzoic acid, reference compound]
- Topical Irritation Score (hairless mice [1]): 8 ± 2
- Topical Irritation Score (hairless mice [2]): 8 ± 1
- % Weight Gain or (Loss) (hairless mice [2]; day 5 vs day 1, parentheses = loss): (21 ± 6) %
- epiphyseal plate closure (guinea pigs): All four of the AGN 191183-treated guinea pigs showed partial or complete epiphyseal plate closure
- EGF mediated proliferation (ECE16-1 cells): completely inhibited EGF mediated proliferation
- antiproliferative activity (CaSki cells; AGN 191183 10^−10 to 10^−6 M, EGF 20 ng/ml, three days): no antiproliferative activity
- increase in the proliferation rate (CaSki cells; ten thousand fold increase in AGN 191183 concentration): ~20%
- MRP-8 mRNA expression [3]: inhibited
- stromelysin-1 mRNA expression [4]: inhibited
